Patent publication US11718631B2, “Sulphonamides and compositions thereof for treating conditions associated with NLRP activity” (Novartis AG, priority 2017, dated 2023)

The compounds below were run against T1, NLRP3 (Homo sapiens, UniProt Q96P20) (assay: IL-1β production in PMA-differentiated THP-1 cells stimulated with gramicidin (hTHP-1 assay)). Settings: hTHP-1 assay containing 2% fetal bovine serum; average IC50, class symbols; read-out: NLRP3 Antagonist, human THP1 NLRP3, IL-1b, Normalized: GeoMean IC50.
T1 construct: IL-1β Production in PMA-Differentiated THP-1 Cells Stimulated with Gramicidin; host or cells: THP-1 cells, PMA-differentiated
T1 sequence (Q96P20 whole entry): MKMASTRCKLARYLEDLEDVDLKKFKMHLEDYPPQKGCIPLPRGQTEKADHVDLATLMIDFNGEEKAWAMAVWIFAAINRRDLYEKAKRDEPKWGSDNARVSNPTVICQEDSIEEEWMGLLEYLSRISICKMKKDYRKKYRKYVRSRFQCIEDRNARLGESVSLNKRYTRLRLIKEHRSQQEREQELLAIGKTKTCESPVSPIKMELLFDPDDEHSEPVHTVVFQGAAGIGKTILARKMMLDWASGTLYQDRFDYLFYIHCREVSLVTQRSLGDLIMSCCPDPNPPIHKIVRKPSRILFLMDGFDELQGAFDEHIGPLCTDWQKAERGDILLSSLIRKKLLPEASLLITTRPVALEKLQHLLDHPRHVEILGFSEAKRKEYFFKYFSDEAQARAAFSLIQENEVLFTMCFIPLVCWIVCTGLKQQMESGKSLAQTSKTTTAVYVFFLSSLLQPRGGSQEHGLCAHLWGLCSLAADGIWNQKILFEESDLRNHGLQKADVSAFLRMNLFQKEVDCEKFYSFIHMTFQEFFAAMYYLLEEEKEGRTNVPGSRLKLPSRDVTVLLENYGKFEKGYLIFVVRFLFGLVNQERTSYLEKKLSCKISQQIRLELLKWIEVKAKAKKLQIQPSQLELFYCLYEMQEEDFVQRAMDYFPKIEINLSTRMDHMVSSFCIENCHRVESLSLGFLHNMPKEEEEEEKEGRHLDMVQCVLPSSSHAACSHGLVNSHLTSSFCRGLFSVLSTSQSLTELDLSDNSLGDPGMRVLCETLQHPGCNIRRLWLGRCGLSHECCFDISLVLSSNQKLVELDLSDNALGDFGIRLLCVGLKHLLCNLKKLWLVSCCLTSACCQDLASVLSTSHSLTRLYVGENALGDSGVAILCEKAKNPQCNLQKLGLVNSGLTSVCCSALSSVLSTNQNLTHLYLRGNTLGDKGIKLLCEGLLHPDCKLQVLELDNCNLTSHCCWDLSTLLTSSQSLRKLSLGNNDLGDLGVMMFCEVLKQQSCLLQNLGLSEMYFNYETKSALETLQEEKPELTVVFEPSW
Assay type: cell-based
Procedure: IL-1β Production in PMA-Differentiated THP-1 Cells Stimulated with Gramicidin.
THP-1 cells were purchased from the American Type Culture Collection and sub-cultured according to instructions from the supplier. […] Prior to the experiment THP-1 were treated with PMA (Phorbol 12-myristate 13-acetate) (20 ng/ml) for 16-18 hours. On the day of the experiment the media was removed and adherent cells were detached with trypsin for 5 minutes. […] A vehicle only control was run concurrently with each experiment. Final DMSO concentration was 0.38%.
THP-1 cells were purchased from the American Type Culture Collection and sub-cultured according to instructions from the supplier. […] Prior to the experiment THP-1 were treated with PMA (Phorbol 12-myristate 13-acetate) (20 ng/ml) for 16-18 hours. Compounds were dissolved in dimethyl sulfoxide (DMSO) to generate a 30 mM stock. On the day of the experiment the media was removed and adherent cells were detached with trypsin for 5 minutes. […] Final DMSO concentration was at 0.37%. Cells were incubated with compounds for 1 hour and then stimulated with gramicidin (5 μM) (Enzo) for 2 hours. Plates were then centrifuged at 340 g for 5 min. Cell free supernatant (40 μL) was collected using a 96-channel PlateMaster (Gilson) and the production of IL-1p was evaluated by HTRF (cisbio).
IL-1p Production in PMA-Differentiated THP-1 Cells Stimulated with Gramicidin.
THP-1 cells were purchased from the American Type Culture Collection and sub-cultured according to instructions from the supplier. […] Prior to the experiment, compounds were dissolved in dimethyl sulfoxide (DMSO) to generate a 30 mM stock. […] DMSO was backfilled in the plate to achieve a final DMSO assay concentration of 0.37%. The plate was then sealed and stored at room temperature until required.
THP-1 cells were treated with PMA (Phorbol 12-myristate 13-acetate) (20 ng/ml) for 16-18 hours. On the day of the experiment the media was removed and adherent cells were detached with trypsin for 5 minutes. […] The plates were incubated for 18 h at 4° C. and read using the preset HTRF program (donor emission at 620 nm, acceptor emission at 668 nm) of the SpectraMax i3x spectrophotometer (Molecular Devices, software SoftMax 6).

| SMILES | IC50 [nM] |
| --- | --- |
| Cc1ccc(-c2cc(C(C)C)c(CC(=O)NS(=O)(=O)c3ccc(CN(C)C)cc3)c(C(C)C)c2)cc1C [Compound 118, N-[4-[(dimethylamino)methyl]phenyl] sulfonyl-2-[4-(3,4-dimethylphenyl)-2,6-di(propan-2-yl)phenyl]acetamide] | 200 to 1000 |
| Cc1ccc(-c2cc(C(C)C)c(CC(=O)NS(=O)(=O)c3ccc(CN(C)C)cc3)c(C(C)C)c2)cc1Cl [Compound 117, 2-[4-(3-chloro-4-methylphenyl)-2,6-di(propan-2-yl)phenyl]-N-[4-[(dimethylamino)methyl]phenyl] sulfonylacetamide] | 200 to 1000 |
| CC(C)c1cc(Br)cc(C(C)C)c1CC(=O)NS(=O)(=O)c1ccc(CN(C)C)cc1 [Compound 148] | 1000 to 5000 |
| C#Cc1cc(C(C)C)c(CC(=O)NS(=O)(=O)c2ccc(C(C)N(C)C)cc2)c(C(C)C)c1 (stereo not shown) [Compound 379] | 1000 to 5000 |
| COc1ccccc1-c1cc(C(C)C)c(CC(=O)NS(=O)(=O)c2ccc(CN(C)C)cc2)c(C(C)C)c1 [Compound 121, N-[4-[(dimethylamino)methyl]phenyl] sulfonyl-2-[4-(2-methoxyphenyl)-2,6-di(propan-2-yl)phenyl] acetamide] | 1000 to 5000 |
| CC(C)c1cc(C#CC2CCOCC2)cc(C(C)C)c1CC(=O)NS(=O)(=O)c1ccc(CN(C)C)cc1 [Compound 313, N-{4-[(dimethylamino)methyl]benzene-sulfonyl}-2-{4-[2-(oxan-4-yl)ethynyl]-2,6-bis(propan-2-yl)phenyl}acetamide] | 1000 to 5000 |
| CC(C)c1cc(-c2cccc3cccnc23)cc(C(C)C)c1CC(=O)NS(=O)(=O)c1ccc(CN(C)C)cc1 [Compound 114] | 1000 to 5000 |

Continued, values first:

| IC50 [nM] | SMILES |
| --- | --- |
| 200 to 1000 | CC(C)c1cc(C2CCc3ccccc32)cc(C(C)C)c1CC(=O)NS(=O)(=O)c1ccc(CN(C)C)cc1 (stereo not shown) [Compound 322, 2-[4-(2,3-dihydro-1H-inden-1-yl)-2,6-bis(propan-2-yl)phenyl]-N-{4-[(dimethylamino)methyl]benzene-sulfonyl}acetamide] |
| 1000 to 5000 | CC(C)c1cc(Cl)cc(C(C)C)c1CC(=O)NS(=O)(=O)c1ccc(CN(C)C)cc1 [Compound 149] |
| 1000 to 5000 | CC(C)c1cc(-c2ccc(Cl)c(F)c2)cc(C(C)C)c1CC(=O)NS(=O)(=O)c1ccc(CN(C)C)cc1 [Compound 120, 2-[4-(4-chloro-3-fluorophenyl)-2,6-di(propan-2-yl)phenyl]-N-[4-[(dimethylamino)methyl]phenyl] sulfonylacetamide] |
| 200 to 1000 | CC(C)c1cc(-c2cccc(Cl)c2)cc(C(C)C)c1CC(=O)NS(=O)(=O)c1ccc(CN(C)C)cc1 [Compound 108, 2-[4-(3-chlorophenyl)-2,6-di(propan-2-yl)phenyl]-N-[4-[(dimethylamino)methyl]phenyl] sulfonylacetamide] |

Same assay, conditions: hTHP-1 assay containing 2% fetal bovine serum; average IC50, given as numeric bound; read-out: NLRP3 Antagonist, human THP1 NLRP3, IL-1b, Normalized: GeoMean IC50

| IC50 [nM] | SMILES |
| --- | --- |
| > 30000 | CC(C)c1cc(C(=O)c2ccccc2)cc(C(C)C)c1CC(=O)NS(=O)(=O)c1ccc(CN(C)C)cc1 [Compound 373, 2-[4-benzoyl-2,6-bis(propan-2-yl)phenyl]-N-{4-[(dimethylamino)methyl]benzenesulfonyl}acetamide] |
| > 30000 | CC(C)c1cc(C2=CCCN(C(=O)OC(C)(C)C)C2)cc(C(C)C)c1CC(=O)NS(=O)(=O)c1ccc(CN(C)C)cc1 [Compound 122, tert-butyl 5-[4-[2-[[4-[(dimethylamino)methyl]phenyl]sulfonylamino]-2-oxoethyl]-3,5-di(propan-2-yl)phenyl]-3,6-dihydro-2H-pyridine-1-carboxylate] |
